According to patent US9833466B2, “Treatment of leukemia with histone deacetylase inhibitors” (Acetylon Pharmaceuticals Inc., priority 2014, dated 2017):
Entries after “also recorded” stand apart in the source; their conditions may differ.

Assays:
Format in all cases: cell-based
NB4 = experiment: Surface CD11b by FACS in NB4; conditions: combination with azacitidine vs single agent, 72 hours
Description: Briefly, the AML cell lines HL-60 (FIGS. 4A and 4D), Kasumi-1 (FIGS. 4B and 4E) and NB4 (FIGS. 4C and 4F) were treated with the indicated concentrations of compounds. In FIGS. 4A-C, surface levels of myeloid differentiation marker CD11b were determined by FACS at 72 hours post-treatment. […] In FIGS. 4D-F, apoptosis was assessed by flow cytometry by measuring Annexin V binding and cellular permeability to propidium iodide at 96 hours post-treatment. The relative fraction of cells that were alive, in early apoptosis, in late apoptosis, or dead was then determined.
FIGS. 7A-F show the combination of HDAC inhibitors and azacitidine in the NB4 cell line. Briefly, cells were treated with DMSO, Compound B, Compound A, or Compound E as single agent or in combination with azacitidine at the indicated concentrations. Surface levels of CD11b were determined 72 hours post-treatment (FIGS. 7A, 7C, 7E), and apoptosis was assessed 96 hours post-treatment (FIGS. 7B, 7D, 7F).

[1] = test system: AML cell lines (Kasumi-3, HL-60, and THP-1); experiment: AML cell viability assay (Cell Titer Glo), HDAC inhibitor combined with azacitidine; conditions: combination with azacitidine; 72 hours; synergistic only when CI<0.7
Description: With the same amount of cultured AML cells in each well, serial dilutions of one compound were added into each row of the wells from left to right, and serial dilutions of the second compound were mixed into each column of these wells from top to bottom. Therefore, those AML cells on the testing plate were exposed to various combinations of the two compounds at different concentrations. The viable cells in each well were measured after 72 hours incubation at 37° C., and the percentage of unviable cells was calculated and normalized to the total cells. […] The CI values were plotted as a function of Fa, as shown in FIGS. 1A-D. In order to avoid any possible false positives due to experimental data variability, a combination was determined “synergistic” only when CI<0.7, as shown in the shaded area of each graph. […] The synergism is driven predominantly by HDAC1/2 inhibition.

[2] = test system: AML blast freshly derived from bone marrow of AML patients; experiment: Ex vivo proliferation of AML blast freshly derived from bone marrow; conditions: Homo sapiens; 5 bone marrow samples from AML patients; flow cytometry at 96 h; single agent; read-out: median IC50, live AML cells
Description: (A-B), 5 bone marrow samples derived from AML patients were treated with increasing concentrations of azacitidine, Compound A and Compound J and live AML cells were quantified by flow cytometry at 96 h. IC50 values (A) and AUC values (B) were plotted. […] The relative potency of the three drugs are Compound J>azacitidine>Compound A, consistent with the result in FIG. 2. (C) 5 bone marrow samples derived from AML patients were treated with increasing doses of azacitidine with Compound J and live AML cells were quantified by flow cytometry at 96 h. The combination index (Comb IDX) were calculated and median Comb IDX values were plotted.

MV4-11 = experiment: Cell cycle by flow cytometry (EdU, Far Red) in MV4-11; conditions: single agent, 72 h
Description: The distribution of cells among G0/G1 phase, G2/M phase, S phase and subG1 phase was determined. […] The relative fraction of cells that were live, in early apoptosis, in late apoptosis, or dead was then determined.
FIG. 17. […] (A) Indicated AML cell lines were exposed to increasing concentrations of Compound J to confirm their sensitivity to HDAC1/2 inhibition. (B-D) MV4-11 cells were treated with indicated concentrations of compounds. (B) Surface levels of myeloid differentiation marker CD11b were determined by FACS at 72 h post-treatment. […] (C) Cell cycle was assessed by flow cytometry after incorporation of EdU and staining with Far Red at 72 h post-treatment. The distribution of cells among G0/G1 phase, G2/M phase, S phase and subG1 phase was determined. […] (D) Apoptosis was assessed by flow cytometry via measuring Annexin V binding and cellular permeability to propidium iodide at 96 h post-treatment. The relative fraction of cells that were live, in early apoptosis, in late apoptosis or dead was then determined.

[3] = test system: HL-60, NB4, MV4-11, Kasumi-1, THP-1, and MOLM-13; experiment: Single agent activity on viability in AML cell lines; conditions: 72 hours, six AML cell lines
Description: FIGS. 3A-D show the single agent activity on viability in AML cell lines. Briefly, each of the following cell lines: HL-60, THP-1, MV-4-11, Kasumi-1, NB4, and MOLM-13 were exposed to increasing concentrations of either Compound B (FIG. 3A), Compound A (FIG. 3B), Compound E (FIG. 3C), or azacitidine (FIG. 3D) to determine their response to drug treatment. […] The panel of cell lines was also treated with azacitidine to measure their sensitivity.
FIGS. 8A-F show the single agent activity on viability in AML cell lines. […] Viability was calculated as a percentage of control (DMSO treated cells). Growth inhibition curves were generated using GraphPad Prism 6.
FIG. 17. […] (B-D) MV4-11 cells were treated with indicated concentrations of compounds. (B) Surface levels of myeloid differentiation marker CD11b were determined by FACS at 72 h post-treatment. […] (C) Cell cycle was assessed by flow cytometry after incorporation of EdU and staining with Far Red at 72 h post-treatment. The distribution of cells among G0/G1 phase, G2/M phase, S phase and subG1 phase was determined. […] (D) Apoptosis was assessed by flow cytometry via measuring Annexin V binding and cellular permeability to propidium iodide at 96 h post-treatment. The relative fraction of cells that were live, in early apoptosis, in late apoptosis or dead was then determined.

Kasumi-1 = Kasumi-1 cell cycle by propidium iodide staining (sub-G1); conditions: 72 hours, increasing concentrations
Description: HDAC inhibition causing AML cell death (apoptosis) was measured by staining the AML cells with propidium iodide after the cells were exposed to different concentrations of the HDAC inhibitors. Four distinct cell populations, G1, S, G2, and sub-G1, were separated and quantified based on their propidium iodide staining patterns. The sub-G1 cells are those dying or dead cells, and the percentage of this population was a reflection of the tested compound cytotoxicity.

GATA2 = GATA2 expression in MV4-11 AML cell line; conditions: 48 h and 72 h
Description: FIG. 16. […] (A-B) MV4-11 cells were plated at 2×10^5 cells/ml at indicated doses for 48 h and 72 h. RNA was prepared and analyzed for GATA2 and GAPDH as internal control.

HL-60 cells = experiment: HL-60 cell viability, combination with azacitidine (cell titer glo, CalcuSyn CI); conditions: 72 hr, CI less than 1 = synergistic
Description: HL-60 cells were treated with increasing doses of azacitidine with Compound E (FIG. 11A) or with Compound A (FIG. 11B) or with Compound H (FIG. 11C) or with Compound C (FIG. 11D), and cell viability was assessed at 72 hr by cell titer glo assay. The combination index (CI) and relative fraction affected (Fa) was determined at each dose level using CalcuSyn software. […] Significant enhancement of azacitidine activity is observed in combination with HDAC1/2 inhibition.

SMILES	CD11b positive cells (NB4)	synergy of cytotoxicity with azacitidine (CI vs Fa) [1]	IC50 [2]	cell cycle arrest (MV4-11)	viability IC50 relative to HDAC selective range [3]	sub-G1 cells (dying or dead cells) (Kasumi-1)	GATA2 expression (GATA2; combination of azacitidine and Compound E)	GATA2 level (GATA2; single agent at 1 uM)	synergistic interaction with azacitidine on cell viability (CI) (HL-60 cells)
O=C(CCCCCCNC(=O)c1cnc(N(c2ccccc2)c2ccccc2)nc1)NO [Compound A, 2-(diphenylamino)-N-(7-(hydroxyamino)-7-oxoheptyl)pyrimidine-5-carboxamide]	synergistic increases of CD11b positive cells	significant synergistic cell killing	7.2 µM	induced cell cycle arrest as well as apoptosis	has some inhibitory effects on HDAC1/2 at their IC50 values				
O=C(CCCCCCNC(=O)c1cnc(N(c2ccccc2)c2ccccc2Cl)nc1)NO [Compound B, 2-((2-chlorophenyl)(phenyl)amino)-N-(7-(hydroxyamino)-7-oxoheptyl)pyrimidine-5-carboxamide]	synergistic increases of CD11b positive cells					Increased amount of sub-G1 cells			
Nc1ccc(-c2cccs2)cc1NC(=O)c1ccc2c(c1)cc(C1CC1)n2CCN1CCOCC1 [Compound E, N-(2-amino-5-(thiophen-2-yl)phenyl)-2-cyclopropyl-1-(2-morpholinoethyl)-1H-indole-5-carboxamide]		the most synergy		induced cell cycle arrest as well as apoptosis	within its HDAC1/2 selective range	Increased amount of sub-G1 cells	further induced GATA2 expression; also recorded: synergistically induce GATA2 expression	induced GATA2 level	strongest synergistic interaction
